Data taken from ChEMBL document CHEMBL1255353, “Antistreptococcal activity of AR-709 compared to that of other agents” (2008).
Values after ≈ are worked out from the molar mass of the structure shown.

Assays:
Type in all cases: functional
Streptococcus pneumoniae [1] = experiment: Antimicrobial activity against penicillin-intermediate Streptococcus pneumoniae by agar dilution method
[2] = test system: Streptococcus sp. 'group A'; experiment: Antimicrobial activity against macrolide-resistant Streptococcus sp. 'group A' by agar dilution method
Streptococcus pneumoniae [3] = experiment: Antimicrobial activity against Streptococcus pneumoniae assessed as time required to show antibiotic effect
[4] = test system: Streptococcus sp. 'group A'; experiment: Antimicrobial activity against macrolide-susceptible Streptococcus sp. 'group A' by agar dilution method
Streptococcus pneumoniae [5] = experiment: Antimicrobial activity against trimethoprim-sulfamethoxazole-susceptible Streptococcus pneumoniae by agar dilution method
Streptococcus pneumoniae [6] = experiment: Antimicrobial activity against quinolone-susceptible Streptococcus pneumoniae by agar dilution method
Streptococcus pneumoniae [7] = experiment: Antimicrobial activity against penicillin-susceptible Streptococcus pneumoniae by agar dilution method
Streptococcus pneumoniae [8] = experiment: Antimicrobial activity against macrolide-resistant Streptococcus pneumoniae by agar dilution method
Streptococcus pneumoniae [9] = experiment: Antimicrobial activity against trimethoprim-sulfamethoxazole-resistant Streptococcus pneumoniae by agar dilution method
Streptococcus pneumoniae [10] = experiment: Antimicrobial activity against quinolone-resistant Streptococcus pneumoniae by agar dilution method
Streptococcus pneumoniae [11] = experiment: Antimicrobial activity against penicillin-resistant Streptococcus pneumoniae by agar dilution method
Streptococcus pneumoniae [12] = experiment: Antimicrobial activity against macrolide-susceptible Streptococcus pneumoniae by agar dilution method
Streptococcus pneumoniae [13] = experiment: Antimicrobial activity against trimethoprim-sulfamethoxazole-resistant Streptococcus pneumoniae by agar dilution method in presence of […] clavulanic acid
Streptococcus pneumoniae [14] = experiment: Antimicrobial activity against macrolide-resistant Streptococcus pneumoniae by agar dilution method in presence of […] clavulanic acid
Streptococcus pneumoniae [15] = experiment: Antimicrobial activity against penicillin-resistant Streptococcus pneumoniae by agar dilution method in presence of […] clavulanic acid
Streptococcus pneumoniae [16] = experiment: Antimicrobial activity against penicillin-intermediate Streptococcus pneumoniae by agar dilution method in presence of […] clavulanic acid
[17] = test system: Streptococcus sp. 'group A'; experiment: Antimicrobial activity against macrolide-susceptible Streptococcus sp. 'group A' by agar dilution method in presence of […] clavulanic acid
Streptococcus pneumoniae [18] = experiment: Antimicrobial activity against macrolide-susceptible Streptococcus pneumoniae by agar dilution method in presence of […] clavulanic acid
Streptococcus pneumoniae [19] = experiment: Antimicrobial activity against quinolone-resistant Streptococcus pneumoniae by agar dilution method in presence of […] clavulanic acid
Streptococcus pneumoniae [20] = experiment: Antimicrobial activity against quinolone-susceptible Streptococcus pneumoniae by agar dilution method in presence of […] clavulanic acid
Streptococcus pneumoniae [21] = experiment: Antimicrobial activity against penicillin-susceptible Streptococcus pneumoniae by agar dilution method in presence of […] clavulanic acid
Streptococcus pneumoniae [22] = experiment: Antimicrobial activity against trimethoprim-sulfamethoxazole-susceptible Streptococcus pneumoniae by agar dilution method in presence of […] clavulanic acid

COc1cc(Cc2cnc(N)nc2N)c2cc(Cc3c(C(=O)N(C)C)[nH]c4ccc(Cl)cc34)oc2c1OC
MIC50 (Streptococcus pneumoniae [1]): 0.25 µg/mL (≈ 0.467 µM)
MIC90 (Streptococcus pneumoniae [1]): 0.5 µg/mL (≈ 0.935 µM)
MIC50 [2]: 0.016 µg/mL (≈ 0.0299 µM)
MIC90 [2]: 0.03 µg/mL (≈ 0.0561 µM)
Time (Streptococcus pneumoniae [3]): >=1.1 hr
MIC50 [4]: 0.06 µg/mL (≈ 0.112 µM)
MIC90 [4]: 0.06 µg/mL (≈ 0.112 µM)
MIC50 (Streptococcus pneumoniae [5]): 0.06 µg/mL (≈ 0.112 µM)
MIC90 (Streptococcus pneumoniae [5]): 0.12 µg/mL (≈ 0.224 µM)
MIC50 (Streptococcus pneumoniae [6]): 0.12 µg/mL (≈ 0.224 µM)
MIC90 (Streptococcus pneumoniae [6]): 0.5 µg/mL (≈ 0.935 µM)
MIC50 (Streptococcus pneumoniae [7]): 0.06 µg/mL (≈ 0.112 µM)
MIC90 (Streptococcus pneumoniae [7]): 0.25 µg/mL (≈ 0.467 µM)
MIC50 (Streptococcus pneumoniae [8]): 0.25 µg/mL (≈ 0.467 µM)
MIC90 (Streptococcus pneumoniae [8]): 0.5 µg/mL (≈ 0.935 µM)
MIC50 (Streptococcus pneumoniae [9]): 0.25 µg/mL (≈ 0.467 µM)
MIC90 (Streptococcus pneumoniae [9]): 0.5 µg/mL (≈ 0.935 µM)
MIC50 (Streptococcus pneumoniae [10]): 0.25 µg/mL (≈ 0.467 µM)
MIC90 (Streptococcus pneumoniae [10]): 1 µg/mL (≈ 1.87 µM)
MIC50 (Streptococcus pneumoniae [11]): 0.25 µg/mL (≈ 0.467 µM)
MIC90 (Streptococcus pneumoniae [11]): 1 µg/mL (≈ 1.87 µM)
MIC50 (Streptococcus pneumoniae [12]): 0.12 µg/mL (≈ 0.224 µM)
MIC90 (Streptococcus pneumoniae [12]): 0.5 µg/mL (≈ 0.935 µM)

CC1(C)S[C@@H]2[C@H](NC(=O)[C@H](N)c3ccc(O)cc3)C(=O)N2[C@H]1C(=O)O [AMOXICILLIN]
MIC50 (Streptococcus pneumoniae [13]): 0.5 µg/mL
MIC90 (Streptococcus pneumoniae [13]): 4 µg/mL
MIC50 (Streptococcus pneumoniae [14]): 0.12 µg/mL
MIC90 (Streptococcus pneumoniae [14]): 4 µg/mL
MIC50 (Streptococcus pneumoniae [15]): 2 µg/mL
MIC90 (Streptococcus pneumoniae [15]): 4 µg/mL
MIC50 (Streptococcus pneumoniae [16]): 0.12 µg/mL
MIC90 (Streptococcus pneumoniae [16]): 1 µg/mL
MIC [17]: ≤ 0.016 µg/mL
MIC50 [17]: ≤ 0.016 µg/mL
MIC90 [17]: ≤ 0.016 µg/mL
MIC50 (Streptococcus pneumoniae [18]): 0.06 µg/mL
MIC90 (Streptococcus pneumoniae [18]): 1 µg/mL
MIC50 (Streptococcus pneumoniae [19]): 0.5 µg/mL
MIC90 (Streptococcus pneumoniae [19]): 2 µg/mL
MIC50 (Streptococcus pneumoniae [20]): 0.12 µg/mL
MIC90 (Streptococcus pneumoniae [20]): 2 µg/mL
MIC (Streptococcus pneumoniae [21]): ≤ 0.016 µg/mL
MIC50 (Streptococcus pneumoniae [21]): ≤ 0.016 µg/mL
MIC90 (Streptococcus pneumoniae [21]): 0.03 µg/mL
MIC50 (Streptococcus pneumoniae [22]): 0.03 µg/mL
MIC90 (Streptococcus pneumoniae [22]): 0.12 µg/mL

CC[C@H]1OC(=O)[C@H](C)[C@@H](O[C@H]2C[C@@](C)(OC)[C@@H](O)[C@H](C)O2)[C@H](C)[C@@H](O[C@@H]2O[C@H](C)C[C@H](N(C)C)[C@H]2O)[C@](C)(O)C[C@@H](C)CN(C)[C@H](C)[C@@H](O)[C@]1(C)O [AZITHROMYCIN]
MIC50 (Streptococcus pneumoniae [1]): 0.12 µg/mL (≈ 0.16 µM)
MIC90 (Streptococcus pneumoniae [1]): > 64 µg/mL
MIC50 [2]: > 64 µg/mL
MIC90 [2]: > 64 µg/mL
MIC50 [4]: 0.12 µg/mL (≈ 0.16 µM)
MIC90 [4]: 0.25 µg/mL (≈ 0.334 µM)
MIC50 (Streptococcus pneumoniae [5]): 0.12 µg/mL (≈ 0.16 µM)
MIC90 (Streptococcus pneumoniae [5]): > 64 µg/mL
MIC50 (Streptococcus pneumoniae [6]): 4 µg/mL (≈ 5.34 µM)
MIC90 (Streptococcus pneumoniae [6]): > 64 µg/mL
MIC50 (Streptococcus pneumoniae [7]): 0.12 µg/mL (≈ 0.16 µM)
MIC90 (Streptococcus pneumoniae [7]): > 64 µg/mL
MIC50 (Streptococcus pneumoniae [8]): > 64 µg/mL
MIC50 (Streptococcus pneumoniae [9]): 8 µg/mL (≈ 10.7 µM)
MIC50 (Streptococcus pneumoniae [10]): 0.12 µg/mL (≈ 0.16 µM)
MIC50 (Streptococcus pneumoniae [11]): 8 µg/mL (≈ 10.7 µM)
MIC50 (Streptococcus pneumoniae [12]): 0.12 µg/mL (≈ 0.16 µM)
MIC90 (Streptococcus pneumoniae [12]): 0.12 µg/mL (≈ 0.16 µM)

CO/N=C(\C(=O)N[C@@H]1C(=O)N2C(C(=O)O)=C(COC(N)=O)CS[C@H]12)c1ccco1 [CEFUROXIME]
MIC50 (Streptococcus pneumoniae [1]): 0.25 µg/mL (≈ 0.589 µM)
MIC90 (Streptococcus pneumoniae [1]): 4 µg/mL (≈ 9.43 µM)
MIC [2]: 0.016 µg/mL (≈ 0.0377 µM)
MIC50 [2]: 0.016 µg/mL (≈ 0.0377 µM)
MIC90 [2]: 0.03 µg/mL (≈ 0.0707 µM)
MIC [4]: 0.016 µg/mL (≈ 0.0377 µM)
MIC50 [4]: 0.016 µg/mL (≈ 0.0377 µM)
MIC90 [4]: 0.016 µg/mL (≈ 0.0377 µM)
MIC50 (Streptococcus pneumoniae [5]): 0.03 µg/mL (≈ 0.0707 µM)
MIC90 (Streptococcus pneumoniae [5]): 0.5 µg/mL (≈ 1.18 µM)
MIC50 (Streptococcus pneumoniae [6]): 0.25 µg/mL (≈ 0.589 µM)
MIC90 (Streptococcus pneumoniae [6]): 4 µg/mL (≈ 9.43 µM)
MIC50 (Streptococcus pneumoniae [7]): 0.03 µg/mL (≈ 0.0707 µM)
MIC90 (Streptococcus pneumoniae [7]): 0.12 µg/mL (≈ 0.283 µM)
MIC50 (Streptococcus pneumoniae [8]): 0.5 µg/mL (≈ 1.18 µM)
MIC90 (Streptococcus pneumoniae [8]): 8 µg/mL (≈ 18.9 µM)
MIC50 (Streptococcus pneumoniae [9]): 2 µg/mL (≈ 4.71 µM)
MIC90 (Streptococcus pneumoniae [9]): 8 µg/mL (≈ 18.9 µM)
MIC50 (Streptococcus pneumoniae [10]): 2 µg/mL (≈ 4.71 µM)
MIC90 (Streptococcus pneumoniae [10]): 8 µg/mL (≈ 18.9 µM)
MIC50 (Streptococcus pneumoniae [11]): 4 µg/mL (≈ 9.43 µM)
MIC90 (Streptococcus pneumoniae [11]): 16 µg/mL (≈ 37.7 µM)
MIC50 (Streptococcus pneumoniae [12]): 0.25 µg/mL (≈ 0.589 µM)
MIC90 (Streptococcus pneumoniae [12]): 4 µg/mL (≈ 9.43 µM)

O=C(O)c1cn(C2CC2)c2cc(N3CCNCC3)c(F)cc2c1=O [CIPROFLOXACIN]
MIC50 (Streptococcus pneumoniae [1]): 1 µg/mL (≈ 3.02 µM)
MIC90 (Streptococcus pneumoniae [1]): 4 µg/mL (≈ 12.1 µM)
MIC50 [2]: 0.5 µg/mL (≈ 1.51 µM)
MIC90 [2]: 2 µg/mL (≈ 6.04 µM)
MIC [4]: 0.5 µg/mL (≈ 1.51 µM)
MIC50 [4]: 0.5 µg/mL (≈ 1.51 µM)
MIC90 [4]: 1 µg/mL (≈ 3.02 µM)
MIC50 (Streptococcus pneumoniae [6]): 1 µg/mL (≈ 3.02 µM)
MIC90 (Streptococcus pneumoniae [6]): 2 µg/mL (≈ 6.04 µM)
MIC50 (Streptococcus pneumoniae [8]): 1 µg/mL (≈ 3.02 µM)
MIC90 (Streptococcus pneumoniae [8]): 4 µg/mL (≈ 12.1 µM)
MIC50 (Streptococcus pneumoniae [9]): 1 µg/mL (≈ 3.02 µM)
MIC90 (Streptococcus pneumoniae [9]): 4 µg/mL (≈ 12.1 µM)
MIC50 (Streptococcus pneumoniae [10]): 32 µg/mL (≈ 96.6 µM)
MIC90 (Streptococcus pneumoniae [10]): > 32 µg/mL

C[C@H]1COc2c(N3CCN(C)CC3)c(F)cc3c(=O)c(C(=O)O)cn1c23.C[C@H]1COc2c(N3CCN(C)CC3)c(F)cc3c(=O)c(C(=O)O)cn1c23.O [LEVOFLOXACIN]
MIC50 (Streptococcus pneumoniae [1]): 1 µg/mL
MIC90 (Streptococcus pneumoniae [1]): 2 µg/mL
MIC50 [2]: 0.5 µg/mL
MIC90 [2]: 1 µg/mL
MIC [4]: 0.5 µg/mL
MIC50 [4]: 0.5 µg/mL
MIC90 [4]: 2 µg/mL
MIC50 (Streptococcus pneumoniae [5]): 1 µg/mL
MIC90 (Streptococcus pneumoniae [5]): 2 µg/mL
MIC50 (Streptococcus pneumoniae [6]): 1 µg/mL
MIC90 (Streptococcus pneumoniae [6]): 1 µg/mL
MIC50 (Streptococcus pneumoniae [7]): 1 µg/mL
MIC90 (Streptococcus pneumoniae [7]): 8 µg/mL
MIC50 (Streptococcus pneumoniae [8]): 1 µg/mL
MIC90 (Streptococcus pneumoniae [8]): 2 µg/mL
MIC50 (Streptococcus pneumoniae [9]): 1 µg/mL
MIC90 (Streptococcus pneumoniae [9]): 2 µg/mL
MIC50 (Streptococcus pneumoniae [10]): 16 µg/mL
MIC90 (Streptococcus pneumoniae [10]): 16 µg/mL
MIC50 (Streptococcus pneumoniae [11]): 1 µg/mL
MIC90 (Streptococcus pneumoniae [11]): 4 µg/mL
MIC50 (Streptococcus pneumoniae [12]): 1 µg/mL
MIC90 (Streptococcus pneumoniae [12]): 8 µg/mL

CC1(C)S[C@@H]2[C@H](NC(=O)Cc3ccccc3)C(=O)N2[C@H]1C(=O)O [PENICILLIN G]
MIC50 (Streptococcus pneumoniae [1]): 0.25 µg/mL (≈ 0.748 µM)
MIC90 (Streptococcus pneumoniae [1]): 1 µg/mL (≈ 2.99 µM)
MIC50 (Streptococcus pneumoniae [5]): 0.03 µg/mL (≈ 0.0897 µM)
MIC90 (Streptococcus pneumoniae [5]): 0.25 µg/mL (≈ 0.748 µM)
MIC (Streptococcus pneumoniae [6]): 0.12 µg/mL (≈ 0.359 µM)
MIC50 (Streptococcus pneumoniae [6]): 0.12 µg/mL (≈ 0.359 µM)
MIC90 (Streptococcus pneumoniae [6]): 2 µg/mL (≈ 5.98 µM)
MIC50 (Streptococcus pneumoniae [7]): 0.016 µg/mL (≈ 0.0478 µM)
MIC90 (Streptococcus pneumoniae [7]): 0.06 µg/mL (≈ 0.179 µM)
MIC50 (Streptococcus pneumoniae [8]): 0.25 µg/mL (≈ 0.748 µM)
MIC90 (Streptococcus pneumoniae [8]): 4 µg/mL (≈ 12 µM)
MIC50 (Streptococcus pneumoniae [9]): 1 µg/mL (≈ 2.99 µM)
MIC90 (Streptococcus pneumoniae [9]): 4 µg/mL (≈ 12 µM)
MIC50 (Streptococcus pneumoniae [10]): 0.5 µg/mL (≈ 1.5 µM)
MIC90 (Streptococcus pneumoniae [10]): 2 µg/mL (≈ 5.98 µM)
MIC (Streptococcus pneumoniae [11]): 2 µg/mL (≈ 5.98 µM)
MIC50 (Streptococcus pneumoniae [11]): 2 µg/mL (≈ 5.98 µM)
MIC90 (Streptococcus pneumoniae [11]): 4 µg/mL (≈ 12 µM)
MIC50 (Streptococcus pneumoniae [12]): 0.12 µg/mL (≈ 0.359 µM)
MIC90 (Streptococcus pneumoniae [12]): 2 µg/mL (≈ 5.98 µM)
